Measurements published in patent publication US5438117A, “Hexapeptides deriving from aglucoteicoplanin and a process for preparing them” (Gruppo Lepetit S.p.A., priority 1990, dated 1995).

Key:
[1] = N. Pant et al and P. M. Booth et al; cited from earlier work
[2] = test system: Entero. faecalis ATCC 7080; assay: In vitro MIC, microdilution method in broth; assay type: cell-based; settings: inoculum 10^5 cfu/ml, 18-24 hours at 37° C.
Method: (§1) The antimicrobial activity, expressed as minimal inhibitory concentration (MIC), of the hexapeptide of formula (I), R=hydrogen, against selected strains of Gram-positive bacteria was determined in comparison with teicoplanin. The microdilution method in DIFCO TODDO-HEWITT broth (Streptococci) or OXOID ISO-SENSITEST broth (Staphylococci) was used.
(§2) *Inoculum: 10^5 cfu/ml.

Staph. aureus Tour = assay: In vitro MIC, microdilution method in broth; assay type: cell-based; settings: OXOID ISO-SENSITEST broth, inoculum 10^5 cfu/ml, 18-24 hours at 37° C.
Method: as §1, §2

[3] = test system: Staph. epidermidis ATCC 12228; assay: In vitro MIC, microdilution method in broth; assay type: cell-based; settings: inoculum 10^5 cfu/ml, 18-24 hours at 37° C.
Method: as §1, §2

Strep. pneumoniae UC 41 = assay: In vitro MIC, microdilution method in broth; assay type: cell-based; settings: DIFCO TODDO-HEWITT broth, inoculum 10^5 cfu/ml, 18-24 hours at 37° C.
Method: as §1, §2

Strep. pyogenes C 203 = assay: In vitro MIC, microdilution method in broth; assay type: cell-based; settings: DIFCO TODDO-HEWITT broth, inoculum 10^5 cfu/ml, 18-24 hours at 37° C.
Method: as §1, §2

Staph. aureus (TLS) = assay: In vitro MIC, microdilution method in broth; assay type: cell-based; settings: Staph. aureus (TLS = Low Sensitive to Teicoplanin); inoculum 10^5 cfu/ml; 18-24 hours at 37° C.
Method: as §1
(§3) TLS = Low Sensitive to Teicoplanin
as §2

Staph. epidermidis (TLS) = assay: In vitro MIC, microdilution method in broth; assay type: cell-based; settings: Staph. epidermidis (TLS = Low Sensitive to Teicoplanin); inoculum 10^5 cfu/ml; 18-24 hours at 37° C.
Method: as §1, §3, §2

[4] = test system: Staph. haemolyticus clin. isolate (TLS); assay: In vitro MIC, microdilution method in broth; assay type: cell-based; settings: inoculum 10^5 cfu/ml, 18-24 hours at 37° C.
Method: as §1, §3, §2

[5] = test system: two strains of S. aureus and S. epidermidis low sensitive to teicoplanin; assay: Activity relative to teicoplanin (from MIC); assay type: cell-based
Method: as §1

| Substance | Biological activity [1] | MIC [2] | MIC (Staph. aureus Tour) | MIC [3] | MIC (Strep. pneumoniae UC 41) | MIC (Strep. pyogenes C 203) | MIC (Staph. aureus (TLS)) | MIC (Staph. epidermidis (TLS)) | MIC [4] | Activity compared with teicoplanin [5] |
| --- | --- | --- | --- | --- | --- | --- | --- | --- | --- | --- |
| Aglucovancomycin Hexapeptide | inactivity |  |  |  |  |  |  |  |  |  |
| aglucoteicoplanin hexapeptide [Example 1] |  | 8 µg/mL | 2 µg/mL | 0.5 µg/mL | 4 µg/mL | 8 µg/mL | 2 µg/mL | 1 µg/mL | 16 µg/mL | four to sixteen times more active |
| teicoplanin |  | 0.125 µg/mL | 0.5 µg/mL | 0.5 µg/mL | 0.063 µg/mL | 0.063 µg/mL | 8 µg/mL | 16 µg/mL | 16 µg/mL |  |
| vancomycin hexapeptide | inactivity |  |  |  |  |  |  |  |  |  |
